According to ChEMBL document CHEMBL5579866, “TRPA1 Inhibition Effects by 3-Phenylcoumarin Derivatives” (2024):
The source made the active and inactive calls. No cut-off for these calls is given here.

Experiments:
[1] = tested on: T47D; assay: Downregulation of TRPA1 protein expression in human T47D cells after 48 hrs; type: functional, cell-based
[2] = tested on: T47D; assay: Inhibition of human T47D spheroid 3D culture growth size at 10 to 100 uM incubated for 12 hrs by CellIQ live-cell analysis; type: functional, cell-based; settings: dose 10-100 µM
[3] = target: Transient receptor potential cation channel subfamily A member 1 (Homo sapiens) (UniProt O75762); assay: Antagonist activity at AITC induced human TRPA1 expressed in HEK293 cells assessed as intracellular calcium level at 10 to 100 uM preincubated for 30 mins followed by AITC stimulation and measured for 30 sec by Fluo-3AM staining based assay; type: cell-based; settings: filed as antagonist, dose 10-100 µM, time 1830.0 sec
Transient receptor potential cation channel subfamily A member 1 (Homo sapiens), sequence (O75762 whole entry): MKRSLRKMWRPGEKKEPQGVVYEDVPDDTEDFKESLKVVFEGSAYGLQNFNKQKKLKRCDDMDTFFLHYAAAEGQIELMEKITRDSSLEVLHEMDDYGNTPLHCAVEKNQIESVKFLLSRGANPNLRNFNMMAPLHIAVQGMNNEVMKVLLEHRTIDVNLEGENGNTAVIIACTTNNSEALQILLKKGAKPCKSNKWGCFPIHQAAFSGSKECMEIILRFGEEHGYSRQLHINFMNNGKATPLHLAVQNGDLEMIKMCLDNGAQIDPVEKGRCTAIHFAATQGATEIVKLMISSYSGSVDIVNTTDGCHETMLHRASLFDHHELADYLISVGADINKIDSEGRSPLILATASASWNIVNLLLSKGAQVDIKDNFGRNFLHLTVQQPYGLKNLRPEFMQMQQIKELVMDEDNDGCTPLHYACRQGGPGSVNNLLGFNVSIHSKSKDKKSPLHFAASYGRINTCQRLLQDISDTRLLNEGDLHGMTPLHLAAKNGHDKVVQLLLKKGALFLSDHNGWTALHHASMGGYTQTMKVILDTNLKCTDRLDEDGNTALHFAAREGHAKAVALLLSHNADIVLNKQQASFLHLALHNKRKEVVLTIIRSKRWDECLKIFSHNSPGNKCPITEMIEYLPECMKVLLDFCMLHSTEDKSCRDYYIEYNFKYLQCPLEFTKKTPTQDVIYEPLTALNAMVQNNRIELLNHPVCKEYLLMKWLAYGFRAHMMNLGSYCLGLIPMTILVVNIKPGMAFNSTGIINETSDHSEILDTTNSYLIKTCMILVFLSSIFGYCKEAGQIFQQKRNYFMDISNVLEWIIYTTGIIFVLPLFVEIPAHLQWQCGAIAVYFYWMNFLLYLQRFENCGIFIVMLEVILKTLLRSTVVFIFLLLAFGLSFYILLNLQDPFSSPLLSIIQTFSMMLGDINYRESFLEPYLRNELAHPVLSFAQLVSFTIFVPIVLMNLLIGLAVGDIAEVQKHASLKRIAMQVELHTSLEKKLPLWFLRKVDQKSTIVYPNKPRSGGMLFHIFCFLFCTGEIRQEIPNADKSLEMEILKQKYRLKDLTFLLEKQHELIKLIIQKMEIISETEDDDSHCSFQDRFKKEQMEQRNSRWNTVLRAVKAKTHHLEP

[4] = tested on: T47D; assay: Inhibition of human T47D spheroid 3D culture growth size at 100 uM incubated for 5 days by CellIQ live-cell analysis; type: functional; settings: 120 h, time 5 day
[5] = tested on: T47D; assay: Inhibition of human T47D spheroid 3D culture growth size at 1 uM incubated for 120 hrs by CellIQ live-cell analysis; type: functional
[6] = tested on: T47D; assay: Inhibition of human T47D spheroid 3D culture growth size at 10 uM incubated for 120 hrs by CellIQ live-cell analysis; type: functional
[7] = tested on: T47D; assay: Inhibition of human T47D spheroid 3D culture growth size at 10 uM incubated for 5 days by CellIQ live-cell analysis; type: functional; settings: 120 h, time 5 day
[8] = target: Transient receptor potential cation channel subfamily A member 1 (Homo sapiens) (UniProt O75762); assay: Agonist activity at human TRPA1; settings: filed as agonist

SMILES: Oc1ccc(/C=C/c2cc(O)cc(O)c2)cc1
- Activity [1]: Active

SMILES: CC(=O)Oc1ccc2cc(-c3cccc(Br)c3)c(=O)oc2c1
- Activity [1]: inactive
- inhibition [2]: Active
- Activity [3]: Active
- inhibition at 100 µM [4]: 18%
- inhibition at 1 µM [5]: 20%
- inhibition at 10 µM [6]: 60%
- inhibition at 10 µM [7]: 8%

SMILES: O=c1oc2ccccc2cc1-c1cccc(O)c1
- Activity [1]: Active
- Activity [8]: Active

SMILES: CC(=O)Oc1ccc2cc(-c3ccccc3)c(=O)oc2c1
- Activity [1]: inactive
- Activity [3]: Active

SMILES: O=c1oc2ccccc2cc1-c1ccc(O)cc1
- Activity [3]: Active

SMILES: O=c1oc2cc(O)ccc2cc1-c1cccc(O)c1
- Activity [1]: Active
- Activity [8]: Active
- Activity [3]: Active
